PMC10887108, “Novel Brain-Penetrant, Small-Molecule Tubulin Destabilizers for the Treatment of Glioblastoma” (Biomedicines, 2024)

How the values were obtained:
[1] = tested on: U87 cells (microtubule network); assay: Immunofluorescent staining of cellular β-tubulin; type: cell-based, human; conditions: U87, compounds at their IC50 concentrations, 24 h
Protocol: U87 cells (4000/well) were plated in black 96-well plates (Perkin Elmer 6055302; Waltham, MA, USA) and grown overnight. Cells were treated with compounds for 24 h, fixed with 4% paraformaldehyde for 20 min, and permeabilized with FoxP3 permeabilization buffer (eBioscience/Thermo Fisher Scientific 00-5523-00; Waltham, MA, USA) for 10 min at RT. Cells were incubated with an anti-TUBB3 (Tuj1) antibody (1:1000; […] Technologies 60052; Vancouver, BC, Canada) labeled with Hoechst 33342 dye (1:2000; Thermo Fisher Scientific H3570; Waltham, MA, USA). Images (40×) were taken with an automated high-content imaging microscope (Operetta, Perkin Elmer; Waltham, MA, USA).

[2] = tested on: U87 glioblastoma cells; assay: Cell cycle analysis (propidium iodide flow cytometry); type: cell-based, human; conditions: 48 h
Protocol: […] Cells were washed in ice-cold PBS, resuspended in 1 mL of ice-cold 70% ethanol, and fixed overnight at −20 °C. Cells were centrifuged and resuspended in PBS containing RNAse A at a final concentration of 0.5 mg/mL (MilliporeSigma 10109142001; Burlington, MA, USA) and propidium iodide at a final concentration of 0.04 mg/mL (Sigma-Aldrich P4170, St. Louis, MO, USA) for 1 h at 37 °C. Nuclear staining was analyzed using a BD FACSCanto II flow cytometer (BD Biosciences; Franklin Lakes, NJ, USA) to determine cell cycle distribution. Cell cycle analysis was performed using the BD FACSDiva software v8.0.

[3] = molecular target: T1, Porcine tubulin (colchicine binding site) (Sus scrofa, UniProt P02554); assay: Colchicine competitive binding assay (fluorescence); conditions: compound 50 µM, colchicine 10 μM, tubulin 20 μM
T1 construct: purchased Cytoskeleton, Inc. T240; host or cells: brain tissue (purified)

[4] = tested on: U87 glioblastoma cells; assay: alamarBlue cell viability assay, U87; type: cell-based; conditions: Homo sapiens, 72 h, U87, 72 h, average absolute IC50
Protocol: (§1) Cells (100 µL/well) were seeded in 96-well tissue culture plates (Greiner Bio-One 650090; Kremsmünster, Austria). The plating density (cells/well) for each cell line was as follows: LN-18 (3000), U87 (4000), and HMC3 (5000). After overnight incubation, compounds were added to the cells (50 µL at 3× concentration, final 0.1% DMSO), and plates were incubated for 72 h. Cell viability was assessed by the addition of 25 µL of alamarBlue for a final concentration of 100 µM final concentration (Resazurin redox reagent, Sigma-Aldrich R7017; St. Louis, MO, USA). After a 4 h incubation, fluorescence was read on a CLARIOstar Plus plate reader (BMG Labtech, Ortenberg, Germany) at EX 570/EM 590 nm.

[5] = tested on: LN-18 glioblastoma cells (TMZ-resistant); assay: alamarBlue cell viability assay, LN-18; type: cell-based; conditions: Homo sapiens, LN-18, 72 h, average absolute IC50
Protocol: as §1

[6] = molecular target: T2, porcine tubulin (Sus scrofa, UniProt P02554); assay: Tubulin polymerization assay (fluorescent reporter); type: biochemical; conditions: porcine tubulin 20 μM; for reduction in tubulin polymerization (AUC): compound 5 μM, relative to DMSO
T2 construct: purchased Cytoskeleton, Inc. BK011P
Protocol: Tubulin polymerization was evaluated by monitoring the incorporation of a fluorescent reporter into MTs during polymerization. The tubulin polymerization assay kit (Cytoskeleton, Inc. BK011P; Denver, CO, USA) was used according to the manufacturer’s instructions. Briefly, the tubulin reaction mix was kept on ice until immediately prior to use.
(A,B) Representative tubulin polymerization plots and data quantification. […] (C) Immunofluorescence staining of β-tubulin in U87 glioblastoma cells. […] Images were captured using an Operetta confocal microscope at 40× magnification. Scale bar, 10 μm. […] Data was collected with a BD FACS Canto II Flow Cytometer and analyzed using the BD FACSDiva software. (E) The percentage of cells in G1, S, and G2/M phases from the histograms in (D). Data are plotted as mean ± SD from at least three independent experiments. Analysis between groups in (B) was performed using a one-way ANOVA with Tukey’s multiple comparisons test.

Row | SMILES | IC50 [4] | IC50 [5] | increase in tubulin polymerization (AUC) ([6]; paclitaxel 3 μM) | effect on tubulin organization / MT network morphology [1] | cells arrested at G2/M ([2]; U87, 20 nM) | reduction of colchicine–tubulin fluorescence relative to control [3] | reduction in tubulin polymerization (AUC) [6] | cells arrested at G2/M ([2]; U87, 5 µM)
1 | COc1cc2c(c(OC)c1OC)-c1ccc(OC)c(=O)cc1[C@@H](NC(C)=O)CC2 [colchicine, reference compound] |  |  |  | varying levels of disruption of tubulin organization | 64% |  |  | 
2 | COC(=O)Nc1nc2ccc(C(=O)c3cccs3)cc2[nH]1 [NOC, Nocodazole, reference compound] |  |  |  |  |  | 79% |  | 
3 | CC(=O)O[C@H]1C(=O)[C@@]2(C)[C@H]([C@H](OC(=O)c3ccccc3)[C@]3(O)C[C@H](OC(=O)[C@H](O)[C@@H](NC(=O)c4ccccc4)c4ccccc4)C(C)=C1C3(C)C)[C@]1(OC(C)=O)CO[C@@H]1C[C@@H]2O [PX, paclitaxel, reference compound] |  |  | 91% |  |  |  |  | 

Now from value to compound, other results behind:

Row | IC50 [4] | IC50 [5] | increase in tubulin polymerization (AUC) ([6]; paclitaxel 3 μM) | SMILES | effect on tubulin organization / MT network morphology [1] | cells arrested at G2/M ([2]; U87, 20 nM) | reduction of colchicine–tubulin fluorescence relative to control [3] | reduction in tubulin polymerization (AUC) [6] | cells arrested at G2/M ([2]; U87, 5 µM)
4 | 588 nM | 73 nM |  | CO[C@H]1CC[C@@H](C(=O)NC(=O)Nc2ccc(Oc3ncc(Cl)cn3)c(C)c2)CC1 [RGN3062] | substantial tubulin disruption |  |  | 36% | 73%
5 | > 10000 nM | 2430 nM |  | CO[C@H]1CC[C@H](C(=O)NC(=O)Nc2ccc(Oc3ncc(Cl)cn3)c(C)c2)CC1 [RGN3096] | no visible effect on tubulin and cell structure |  |  | no difference relative to the DMSO control | 11%
